In patent US8541455B2, “Derivatives of 2-pyridin-2-yl-pyrazol-3(2H)-one, preparation and therapeutic use thereof as HIF activators” (Sanofi, priority 2008, dated 2013):
Where a name gives a salt, the structure may show the parent alone.

Tests used:
HIF1-alpha = test: Measurement of the stabilization of HIF1-alpha in HEKEA cells (beta-galactosidase complementation, luminescence); format: cell-based, human; settings: HEKEA_HIF1-alphaPLBL cells, 6 hours incubation under normoxia; concentration that produces 50% of the maximum response of this same compound
Description: Furthermore, a subject of the invention is also a uniform test process for the direct measurement by beta-galactosidase complementation of the amount of HIF1-alpha protein in the nucleus of cells, preferably HEK cells, after treating the said cells with one or more test compounds, which consists in: • (a) inoculating, preferably in 384-well plates, the said cells in a suitable culture medium, preferably 1% foetal calf serum (abbreviated as FCS); • (b) adding the test compound(s) at a suitable concentration in a suitable solvent to the cells previously inoculated in the said culture medium; preferably the test compounds are diluted in 0.1% FCS; • (c) incubating the said cells thus prepared in an indicator at about 37° C., advantageously for about 6 hours; • (d) lysing the cells with a lysis buffer containing a chemiluminescent substrate for beta-galactosidase; • (e) incubating in the absence of light, before reading and measuring the luminescence, which is a function of the beta-galactosidase activity.
Many tests exist describing the indirect measurement of the activity of HIF via reporter gene systems (HRE-luciferase) or via the measurement of HIF-induced proteins (for example VEGF or EPO). Furthermore, the only tests that allow direct measurement of the amount of HIF1-alpha protein in cells are tests using antibodies, for instance Western blotting comprising phases of cell extraction (total lysates or nuclear extracts) that are consuming in terms of cells and time, thus limiting the compound screening capacity. The object was thus to develop a sensitive screening test, adaptable to 384-well plates, for directly measuring the amount of HIF1-alpha protein in the nucleus of cells. This test was established in HEK cells ([…]).
The test is a cell test based on the principle of enzyme complementation, the enzyme used herein being beta-galactosidase. HEKEA cells are HEK cells stably expressing, and restricted in their nucleus, mutant beta-galactosidase (omega fragment, also known as EA) (line sold by DiscoverX). This construct makes it possible to obtain beta-galactosidase activity only when the protein comprising the Prolabel complementation fragment has migrated into the nucleus.
The protein of interest comprising the Prolabel fragment is in this case an HIF1-alpha or HIF1-alpha mutated at the two prolines 402 and 564 replaced with alanines, is C-terminal fused via molecular biology (DiscoverX vector sold by Clontech) with the small complementation peptide fragment (Prolabel or ED, about 4 kDa). The vector coding for the chimeric protein HIF1-alpha_Prolabel is then transfected into HEKEA cells to obtain stable clones (HEKEA_HIF1-alphaPLBL).
The amount of C-terminal Prolabel-“labelled” HIF1-alpha protein obtained after treating the cells to hypoxia or compounds that are potentially HIF activators is measured by adding to the cells a lysis buffer containing a chemiluminescent substrate for beta-galactosidase.
The measurement of the beta-galactosidase activity will be proportional to the amount of Prolabel and thus of HIF1-alpha that has migrated into the nucleus of the cells.
• 1.3.1 Experiment Plan • 1) Inoculation of the cells on D0 • 2) Adherence for 24 hours under normoxia • 3) Preparation and addition of the products (Biomek 2000 and FX) on D+1 • 4) Incubation under normoxia for 6 hours • 5) Reading of the plates (by luminescence)
The cells are inoculated with Multidrop in white, opaque-bottomed 384-well plates (Greiner ref 3704), in 30 μl of culture medium (1% FCS) at 10 000 cells/well (cell plate). • 1.3.3 Treatment • Preparation of the Dilution Plate (DL Plate)
The test products are prepared at 3×10^−2 M in 100% DMSO and then diluted to 3×10^−4 M in medium containing 0.1% FCS (10 μl in 990 μl of MEM). They are then deposited by hand into column 12 of a round-bottomed 96-well plate (200 μl of each compound) known as the dilution plate (dl). […]

[1] = test system: EPO secretion by Hep3B cells; test: Measurement of the secretion of EPO by Hep3B hepatocytes (ELISA on supernatant); format: cell-based; settings: Homo sapiens, 18 hours incubation under normoxia, EPO in supernatant, 50% of the maximum response of this same compound
Description: (§1) 2. Measurement of the Secretion of VEGF and EPO by Hep3B Hepatocytes 2.1. Object
(§2) HIF is a transcription factor involved in the adaptation of cells to hypoxia. Since the genes activated by HIF are involved in the adaptive response of cells to hypoxia and of tissues to ischaemia, the object is to identify and characterize compounds that stabilize HIF1-alpha in cells in order to amplify or mimic its beneficial effect. HIF1-alpha was identified following the analysis of the EPO gene promoter, which makes this protein one of the first markers of HIF1-alpha activation. Moreover, VEGF is also identified in the literature as one of the main markers of HIF activation. It is for this reason that measurement of these two proteins was selected for characterizing compounds that are HIF activators in Hep3B cells.
(§3) The object was thus to develop a sensitive screening test, adaptable to 96-well plates, for directly measuring the amount of VEGF and EPO in the supernatant of the Hep3B cells (cells derived from a human hepatocarcinoma) in response to the potential HIF activators.
(§4) The test is an ELISA test for measuring VEGF and EPO in the supernatant of Hep3B cells treated under hypoxia or with deferoxamine as controls or with the potential HIF activators. The test was adapted to a 96-well plate, allowing greater compound screening capacity.
(§5) • 2.3.1 Experiment Plan • 1) Inoculation of the cells on D0 • 2) Adherence for 6 hours under normoxia • 3) Preparation and addition of the products (Biomek 2000 and FX) • 4) Incubation under normoxia for 18 hours • 5) EPO and VEGF assay in the supernatant on D+1 • 2.3.2 Inoculation of the Cells
(§6) The cells are subcultured into 100 μl of culture medium (10% FCS) in black, opaque-bottomed 96-well plates (reference Costar 3916) at 30 000 cells/well, with Multidrop. • 2.3.3 Treatment of the Cells
(§7) The test products are prepared at 10^−2 M in 100% DMSO and then diluted to […] in medium containing 0.1% FCS (6 μl in 194 μl of MEM). 200 μl of each compound are deposited in column 12 of a 96-well plate. Dilution ranges from […] to 3×10^−8M are prepared with Biomek 2000 (programme: range of 9 points in series). 100 μl of MEM 0.1% FCS and Deferoxamine 5×10^−3M are added as controls to column 3 and, respectively, to wells A,B,C,D and wells E,F,G,H • DL Plate Distribution in Cell Plates
(§8) The medium of the cells inoculated the day before into 96-well plates is changed for 90 μl of medium containing 0.1% FCS and 10 μl are distributed with FX 96 from the 96-well DL plates to the cell plates.
(§9) The cell plates thus treated are placed for 18 hours in an incubator at 37° C. (ambient O2, 6% CO2).
(§10) The supernatants (80 μl) of the Hep3B cells in the 96-well plates treated with the potential HIF activators are recovered with a multichannel pipette for simultaneous assay of the VEGF and the EPO by ELISA according to the supplier's instructions (Kit EPO Mesoscale (ref K15122B-2)).
(§11) The activating activity of a compound with respect to HIF is given by the concentration that produces 50% of the maximum response of this same compound in Table IV below.

[2] = test system: VEGF secretion by Hep3B cells; test: Measurement of the secretion of VEGF by Hep3B hepatocytes (ELISA on supernatant); format: cell-based; settings: Homo sapiens, 18 hours incubation under normoxia, VEGF in supernatant, 50% of the maximum response of this same compound
Description: as §1, §2, §3, §4, §5, §6, §7, §8, §9, §10, §11

| EC50 (HIF1-alpha) [µM] | melting point [°C] | Compound | EC50 [1] [µM] | EC50 [2] [µM] |
| --- | --- | --- | --- | --- |
| 3.8 | 178 | CCN(c1ccccc1)S(=O)(=O)c1ccc(-n2[nH]c(C)c(Cc3ccc(Cl)cc3Cl)c2=O)nc1 [Compound 14] | 0.3 | – |
| – | – | CCN(c1ccccc1)S(=O)(=O)c1ccc(-n2[nH]c(C)c(Cc3c(F)cccc3Cl)c2=O)nc1 [Compound 20, 6-[4-(2-chloro-6-fluorobenzyl)-3-methyl-5-oxo-2,5-dihydro-1H-pyrazol-1-yl]-N-ethyl-N-phenylpyridine-3-sulfonamide] | 1 | 1.1 |
| 4.7 | 126 | CCN(c1ccccc1)S(=O)(=O)c1ccc(-n2[nH]c(C)c(Cc3cccc(OCCOC)c3)c2=O)nc1 [Compound 38, N-ethyl-6-{4-[3-(2-methoxyethoxy)benzyl]-3-methyl-5-oxo-2,5-dihydro-1H-pyrazol-1-yl}-N-phenylpyridine-3-sulfonamide] | 1 | – |
| 1.8 | 224 | CCN(c1ccccc1)S(=O)(=O)c1ccc(-n2[nH]c(C)c(Cc3ccc(S(C)(=O)=O)cc3)c2=O)nc1 [Compound 39] | 2 | – |
| 4.8 | 212 | CCN(c1ccccc1)S(=O)(=O)c1ccc(-n2[nH]c(C)c(Cc3ccccc3)c2=O)nc1 [Compound 42] | 1.1 | 1.3 |
| 3.1 | – | CCN(c1ccccc1)S(=O)(=O)c1ccc(-n2[nH]c(C)c(Cc3cccnc3)c2=O)nc1 [Compound 43] | 1.5 | 1.7 |
| 3.1 | 140 | CCN(c1ccccc1)S(=O)(=O)c1ccc(-n2[nH]c(C)c(Cc3cc(OC)ccc3OC)c2=O)nc1 [Compound 44] | 1.9 | 2.1 |
| 1.1 | 162 | CCN(c1ccccc1)S(=O)(=O)c1ccc(-n2[nH]c(C)c(Cc3cc(OC)cc(OC)c3)c2=O)nc1 [Compound 47] | 2 | 2.8 |
| 4.3 | 208 | CCN(c1ccccc1)S(=O)(=O)c1ccc(-n2[nH]c(C)c(Cc3ccc(O)cc3)c2=O)nc1 [Compound 48] | 1.1 | 1.9 |
| 2.6 | 122 | CCN(c1ccccc1)S(=O)(=O)c1ccc(-n2[nH]c(C)c(Cc3cccc(N(C)C)c3)c2=O)nc1 [Compound 53, 6-{4-[3-(dimethylamino)benzyl]-3-methyl-5-oxo-2,5-dihydro-1H-pyrazol-1-yl}-N-ethyl-N-phenylpyridine-3-sulfonamide] | 0.9 | 3.2 |
| 6.4 | 188 | CCN(c1ccccc1)S(=O)(=O)c1ccc(-n2[nH]c(C)c(Cc3ccc(OC)cc3)c2=O)nc1 [Compound 54, N-ethyl-6-[4-(4-methoxybenzyl)-3-methyl-5-oxo-2,5-dihydro-1H-pyrazol-1-yl]-N-phenylpyridine-3-sulfonamide] | 0.45 | 0.3 |
| 2.1 | – | CCN(c1ccccc1)S(=O)(=O)c1ccc(-n2[nH]c(C)c(Cc3cccc(OCCN(C)C)c3)c2=O)nc1 [Compound 56, 6-(4-{3-[2-(dimethylamino)ethoxy]benzyl}-3-methyl-5-oxo-2,5-dihydro-1H-pyrazol-1-yl)-N-ethyl-N-phenylpyridine-3-sulfonamide hydrochloride] | 2 | 2.5 |
| 1.5 | 180 | CCCc1[nH]n(-c2ccc(S(=O)(=O)N(CC)c3ccccc3)cn2)c(=O)c1Cc1ccccc1 [Compound 68, 6-(4-benzyl-5-oxo-3-propyl-2,5-dihydro-1H-pyrazol-1-yl)-N-ethyl-N-phenylpyridine-3-sulfonamide] | 0.4 | 0.5 |
| 3.7 | 158 | CCN(c1ccccc1)S(=O)(=O)c1ccc(-n2[nH]c(C)c(CCc3ccccc3)c2=O)nc1 [Compound 74, N-ethyl-6-[3-methyl-5-oxo-4-(2-phenylethyl)-2,5-dihydro-1H-pyrazol-1-yl]-N-phenylpyridine-3-sulfonamide] | 0.3 | – |
| 4.8 | 122 | CCN(c1ccccc1)S(=O)(=O)c1ccc(-n2[nH]c(C)c(C(C)(C)c3ccccc3)c2=O)nc1 [Compound 77, N-ethyl-6-[3-methyl-4-(1-methyl-1-phenylethyl)-5-oxo-2,5-dihydro-1H-pyrazol-1-yl]-N-phenylpyridine-3-sulfonamide] | 1.4 | 1.3 |
| 0.35 | – | CCN(c1ccccc1)S(=O)(=O)c1ccc(-n2[nH]cc(Cc3ccccc3)c2=O)nc1 [Compound 93, 6-(4-benzyl-5-oxo-2,5-dihydro-1H-pyrazol-1-yl)-N-ethyl-N-phenylpyridine-3-sulfonamide] | 0.4 | 0.4 |
| 2.5 | – | CC(C)(C)NS(=O)(=O)c1ccc(-n2[nH]cc(Cc3cccnc3)c2=O)nc1 [Compound 98B, N-tert-butyl-6-[5-oxo-4-(pyridin-3-ylmethyl)-2,5-dihydro-1H-pyrazol-1-yl]pyridine-3-sulfonamide hydrochloride] | – | – |
